Laboratory results published in patent US10759783B2, “Biaryl inhibitors of Bruton'S tyrosine kinase” (BIOGEN MA INC., priority 2013, dated 2020).

How the values were obtained:
BTK enzyme = target: T1, BTK enzyme (Homo sapiens, UniProt Q06187); assay: In vitro BTK kinase assay: BTK-POLYGAT-LS assay; type: biochemical; settings: ATP 10 μM, read-out: IC50 (10uMATP)
T1 construct: purchased Upstate 14-552
Outline: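 Human BTK activity was measured with final 10 μM ATP and 100 nM polyGAT substrate in pH 7.5 Tris buffer with 10 mM MgCl2, DTT, Triton X-100 and casein.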

[1] = target: BTK (phospho-BTK) in human whole blood (Homo sapiens, UniProt Q06187); assay: In vitro PD assay in human whole blood (pBTK assay)
Sequence of BTK (phospho-BTK) in human whole blood (Q06187 whole entry): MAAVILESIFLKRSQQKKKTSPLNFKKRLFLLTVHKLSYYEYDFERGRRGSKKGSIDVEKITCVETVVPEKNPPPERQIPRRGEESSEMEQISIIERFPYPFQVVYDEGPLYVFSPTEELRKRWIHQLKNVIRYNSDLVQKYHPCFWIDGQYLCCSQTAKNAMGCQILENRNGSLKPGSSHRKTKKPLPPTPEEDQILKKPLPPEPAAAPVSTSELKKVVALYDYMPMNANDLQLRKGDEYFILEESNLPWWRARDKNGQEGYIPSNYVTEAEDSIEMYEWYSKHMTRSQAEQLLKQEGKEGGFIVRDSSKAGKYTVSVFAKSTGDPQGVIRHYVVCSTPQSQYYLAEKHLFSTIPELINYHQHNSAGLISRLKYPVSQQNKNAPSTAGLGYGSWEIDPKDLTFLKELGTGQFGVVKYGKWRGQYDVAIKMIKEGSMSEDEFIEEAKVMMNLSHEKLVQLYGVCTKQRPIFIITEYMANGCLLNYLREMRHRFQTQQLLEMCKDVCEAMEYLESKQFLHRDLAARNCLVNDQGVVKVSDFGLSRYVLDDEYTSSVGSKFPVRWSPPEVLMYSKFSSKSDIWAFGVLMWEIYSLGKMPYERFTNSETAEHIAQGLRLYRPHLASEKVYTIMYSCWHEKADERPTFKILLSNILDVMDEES

T1 sequence (Q06187 whole entry): as above

| SMILES | IC50 (BTK enzyme) [nM] | IC50 [1] [nM] |
| --- | --- | --- |
| Cc1cc(-c2cc(Nc3cc4n(n3)CCN(C)C4C)ncn2)ccc1CNC(=O)c1cnn(C(C)(C)C)c1 (stereo not shown) [Example I-282, 1-tert-butyl-N-[[4-[6-[(4,5-dimethyl-6,7-dihydro-4H-pyrazolo[1,5-a]pyrazin-2-yl)amino]pyrimidin-4-yl]-2-methyl-phenyl]methyl]pyrazole-4-carboxamide] | < 10 | < 500 |
| CNC(=O)C(C)(C)n1cc(Nc2nccc(-c3ccc(CNC(=O)N4CC(OC(C)C)C4)c(C)c3)n2)cn1 [Example I-212, 3-isopropoxy-N-(2-methyl-4-(2-((1-(2-methyl-1-(methylamino)-1-oxopropan-2-yl)-1H-pyrazol-4-yl)amino)pyrimidin-4-yl)benzyl)azetidine-1-carboxamide] | < 10 | < 500 |
| Cc1cc(-c2ccnc(Nc3cnn(C)c3)n2)ccc1CNC(=O)c1cnc(C(C)(C)C)s1 [Example I-1, 2-(tert-butyl)-N-(2-methyl-4-(2-((1-methyl-1H-pyrazol-4-yl)amino)pyrimidin-4-yl)benzyl)thiazole-5-carboxamide] | < 10 | < 500 |
| CC(C)OC1CN(C(=O)NC2CCCCc3cc(-c4ccnc(Nc5cnn(CCO)c5)n4)ccc32)C1 (stereo not shown) [Example I-168, N-(2-(2-((1-(2-hydroxyethyl)-1H-pyrazol-4-yl)amino)pyrimidin-4-yl)-6,7,8,9-tetrahydro-5H-benzo[7]annulen-5-yl)-3-isopropoxyazetidine-1-carboxamide] | < 10 | < 500 |
| Cc1cc(-c2ccnc(Nc3cnn(C)c3)n2)ccc1CNC(=O)c1nc2c(s1)CCC2 [Example I-10, N-(2-methyl-4-(2-((1-methyl-1H-pyrazol-4-yl)amino)pyrimidin-4-yl)benzyl)-5,6-dihydro-4H-cyclopenta[d]thiazole-2-carboxamide] | < 10 | < 500 |
| COC1CN(C(=O)NCc2ccc(-c3ccnc(Nc4cnn(C)c4)n3)cc2C)C1 [Example I-300, 3-methoxy-N-[[2-methyl-4-[2-[(1-methylpyrazol-4-yl)amino]pyrimidin-4-yl]phenyl]methyl]azetidine-1-carboxamideacid] | 10 to 99 | < 500 |
| Cc1cc(-c2ccnc(Nc3cnn([C@@H]4CCNC4)c3)n2)ccc1CNC(=O)c1cnc(C(C)(C)C)s1 [Example I-122, (R)-2-(tert-butyl)-N-(2-methyl-4-(2-((1-(pyrrolidin-3-yl)-1H-pyrazol-4-yl)amino)pyrimidin-4-yl)benzyl)thiazole-5-carboxamide] | < 10 | < 500 |
| CCn1cc(Nc2nccc(-c3ccc(CNC(=O)c4cnc(C(C)(C)C)s4)c(C)c3)n2)cn1 [Example I-40, 2-(tert-butyl)-N-(4-(2-((1-ethyl-1H-pyrazol-4-yl)amino)pyrimidin-4-yl)-2-methylbenzyl)thiazole-5-carboxamide] | < 10 | < 500 |
| Cc1cc(-c2cc(Nc3ccc(N4CCN(C)CC4)cn3)ncn2)ccc1CNC(=O)c1ccn(C(C)(C)C)n1 [Example I-226, 1-(tert-butyl)-N-(2-methyl-4-(6-((5-(4-methylpiperazin-1-yl)pyridin-2-yl)amino)pyrimidin-4-yl)benzyl)-1H-pyrazole-3-carboxamide] | < 10 | < 500 |
| Cc1cc(-c2ccnc(Nc3cnn(C[C@H]4CNCCO4)c3)n2)ccc1CNC(=O)c1cnc(C(C)(C)C)s1 [Example I-128, (R)-2-(tert-butyl)-N-(2-methyl-4-(2-((1-(morpholin-2-ylmethyl)-1H-pyrazol-4-yl)amino)pyrimidin-4-yl)benzyl)thiazole-5-carboxamide] | < 10 | < 500 |
| CC(C)OC1CN(C(=O)NCc2ccc(-c3ccnc(Nc4cnn(CCO)c4)n3)cc2C(F)(F)F)C1 [Example I-301, N-[[4-[2-[[1-(2-hydroxyethyl)pyrazol-4-yl]amino]pyrimidin-4-yl]-2-(trifluoromethyl)phenyl]methyl]-3-isopropoxy-azetidine-1-carboxamide] | < 10 | < 500 |
